Read-outs that look alike come from different tables or passages of the source. Marks after values point to notes of the source that are not given here. Each block holds one compound with its values, some of them ahead of it.
Experiments:
[1] = in water, measured at 10 MHz; cited from earlier work
[2] = Longitudinal relaxivity (r1) turn-on response to Cu+ from T1 measurements at 60 MHz; type: physicochemical; conditions: 1 equiv Cu^+, 20 mM HEPES buffer, pH 7, 37° C.
Procedure: (§1) The longitudinal relaxivity values for the CG contrast agents in the absence or presence of copper ions were determined using T1 measurements at 60 MHz. Studies were performed at 37° C. in 20 mM HEPES buffered to pH 7, and solutions of the purified CG sensors for relaxivity experiments contained 0.2 mM Gd^3+ as determined by ICP-OES. Spectroscopic data are collected in Table 1.
Upon addition of up to 1 equiv of copper ions, the relaxivity values of the CG contrast agents increase, establishing the ability of these probes to sense copper using the MR modality (Table 1, FIG. 3). CG2, CG3, CG4, and CG5 respond to Cu^+ with relaxivity increases ranging from 92% to 360%. […] These values represent the largest relaxivity enhancements observed to date for metal-activated MR contrast agents and a ca. 9-fold improvement in copper ion response compared to CG1 (41% increase). The observed differences in turn-on Cu^+ responses for benzyl-substituted CG4 (290% increase) versus methyl-substituted CG5 (92% increase) with the same pyridyl-thioether receptor show the marked effects that small peripheral substitutions can have on relaxivity properties.

[3] = Electrochemical Cu2+/Cu+ reduction potentials of copper-bound CG complexes; type: physicochemical; conditions: PBS buffer, pH 7.4
Procedure: CG6 is a unique member of the CG family that is equally responsive to both Cu^+ and Cu^2+. Addition of either Cu^+ or Cu^2+ to CG6 triggers a maximum 73% relaxivity turn-on from r1=2.2 mM^−1s^−1 to r1=3.8 mM^−1s^−1. […] On the other hand, copper-bound CG6, which responds to both Cu^+ and Cu^2+, has the least positive Cu^2+/Cu^+ reduction potential at +0.13 V.

[4] = Longitudinal relaxivity (r1) from T1 measurements at 60 MHz, absence of copper; type: physicochemical; conditions: no copper; 60 MHz, 20 mM HEPES buffer, pH 7, 37° C., 0.2 mM Gd^3+
Procedure: as §1
Nuclear magnetic relaxation dispersion (NMRD) experiments provide supporting evidence for this proposal (vide infra).

[5] = Metal ion selectivity of relaxivity response (competing metal ions alone or with added copper); type: physicochemical; conditions: relaxivity at 60 MHz, 20 mM HEPES, pH 7, 37° C.
Procedure: FIG. 6. Relaxivity responses of CG2 to various metal ions. White bars represent the addition of an excess of the appropriate metal ion (10 mM for Na^+, 2 mM for K^+, Mg^2+, and Ca^2+, and 0.2 mM for Fe^2+, Fe^3+, Cu^2+) to a 0.2 mM solution of CG2. Response to Zn^2+ was measured both at 0.2 mM Zn^2+ (Zn^2+1×) and 2 mM Zn^2+ (Zn^2+10×). Black bars represent the subsequent addition of 0.2 mM Cu^+ to the CG2 solution. Relaxivity measurements were acquired at 37° C. in 20 mM HEPES buffer, pH 7, at a proton Larmor frequency of 60 MHz.
The potential ability of this new family of CG sensors to sense bioavailable copper pools in either or both its predominant oxidation states represents a significant advance over the initial CG1 compound.

[6] = Apparent Kd for Cu+ by UV-visible absorption with competing ligand thiourea; type: binding; conditions: 20 mM HEPES buffer, pH 7, 25° C., 1:1 stoichiometry assumed, read-out: Kd (apparent dissociation constant)
Procedure: FIG. 5. Normalized absorbance response of 0.2 mM CG2-6 to buffered Cu^+ (CG2-5) or Cu^2+ (CG6) solutions for Kd value determination. Spectra were acquired in 20 mM HEPES, pH 7.

[7] = Nuclear magnetic relaxation dispersion (NMRD) profiles, Solomon-Bloembergen-Morgan fit; type: physicochemical; conditions: copper free
Procedure: FIG. 9. ^1H Nuclear magnetic relaxation dispersion profiles of CG3 and CG3+Cu^+ acquired at 25° C. The solid lines represent the best fit profiles.
As a secondary, independent set of experiments to further probe the mechanisms of copper ion sensing by the CG contrast agents, we also performed nuclear magnetic relaxation dispersion (NMRD) measurements of these sensors in the absence and in the presence of copper ions using a field cycling relaxometer (FIG. 9). The profiles obtained were analyzed following Solomon-Bloembergen-Morgan theory^36-38 for the inner-sphere relaxivity and the Freed model^115 for the outer-sphere relaxivity, fixing the diffusion coefficient (D) at […], the distance between Gd^3+ and the inner sphere water protons (r) at 3.1 Å, and the inner sphere exchange lifetime (τM) at 160 ns, the reported value for the parent complex Gd^3+-DO3A. Profiles were obtained for all compounds in the copper-free state. Profiles in the presence of Cu^n+ were obtained for CG2-4 (Cu^+) and CG6 (Cu^2+).
In fact, the measured outer-sphere relaxivities were so low that, in order to obtain a reasonable fit, the distance of closest approach of outer-sphere water protons (a) was allowed to vary. The distances obtained for the CG complexes (4.2-4.8 Å) were markedly longer than what is observed for typical Gd^3+ contrast agents with greater water access (3.8-4 Å). These values correlate with the copper-free relaxivities of CG2-6; longer a values give lower relaxivities and shorter a values give higher relaxivities. For Cu^+-sensing agents CG2-4, the estimated change in q of 2 as determined by DIS measurements was also observed in the fitted NMRD data. In fact, any attempt to fit the observed NMRD profiles with q=1 led to very poor agreement between experimental and calculated values. The change in q of 1 for CG6 upon addition of Cu^2+ as determined by NMRD is consistent with the lower turn-on response observed with this complex compared to CG2-4. The reduced q modulation for CG6 relative to CG2-4 could indicate that the carboxylic acid moiety used for Cu^2+ binding also interacts with the Gd^3+ center in the Cu^2+-bound state. The fitted rotational correlation times (τR) for copper-bound CG complexes all fall within the range expected for Gd^3+ complexes with molecular weights of 700-800 D. τR values for copper-free CG2-6 were fixed to values close to their copper-bound analogues as fits of NMRD data for q=0 complexes are not sensitive to small changes in τR. The values of Δ^2 (average quadratic transient zero field splitting), τv (electronic correlation time), and τs0 (electronic relaxation time at zero field), which govern the electronic relaxation time, are relatively similar to each other. These NMRD values are closer to those of Gd^3+-DTPA than Gd^3+-DOTA, reflecting the asymmetry of CG2-6.^64

[8] = Dysprosium-induced 17O NMR shift (DIS) experiments for q; type: physicochemical; conditions: for −Δ ppm/[Dy] (DIS slope): no Cu^+
Procedure: FIG. 8. Plot of [DyCG2] vs. −Δ ppm of the ^17O signal of H2O in the absence and presence of 1 equiv Cu^+. Spectra were acquired at room temperature in 20 mM HEPES buffer, pH 7, at a ^17O Larmor frequency of 67.8 MHz.
To circumvent these issues, we turned our attention to an alternative method for obtaining q values, namely the application of ^17O NMR spectroscopy to Dy^3+ analogs of the CG sensors (DyCG2-6).^114 Specifically, interactions of water ligands with paramagnetic Dy^3+ ions lead to an upfield shift of the ^17O signals of H2O in a manner proportional to both the concentration of Dy^3+ and q. Moreover, this lanthanide-induced shift is largely insensitive to the non-water ligands coordinated to the paramagnetic metal center.^114 Dysprosium-induced shift (DIS) experiments for CG2 and CG3 were performed in 20 mM HEPES buffered to pH 7; CG4 and CG5 spectra were acquired in 10% acetonitrile in 20 mM HEPES buffered to pH 7 owing to solubility and stability of the Cu^+-bound complexes at higher Dy^3+ concentrations required for the DIS measurements (1-200 mmol/kg H2O). Dy concentrations were calculated using molality (with respect to H2O) since the ^17O shift represents the interaction between Dy^3+ and H2O; addition of CH3CN aids in stabilizing certain complexes but should not affect the DIS. The spectral results were calibrated to a DyCl3 standard (q=9) to determine the number of bound water molecules for the CG sensors with and without added Cu^+. A plot of varying DyCl3 concentrations versus DIS in pH 7 HEPES buffer has a slope of 324 ppm/(mol/kg H2O), which corresponds to a 36 ppm/(mol/kg H2O) shift per bound water molecule.
The effects of DyCG2 on the chemical shift of ^17O-labeled H2O were determined in the absence and presence of 1 equiv Cu^+ at various concentrations of Dy^3+ (FIG. 8). In the absence of Cu^+, the measured ^17O shift response for DyCG2 is 9 ppm/(mol/kg H2O), corresponding to q=0.3. When 1 equiv of Cu^+ is added, the observed shift response increases to 72 ppm/(mol/kg H2O), corresponding to q=2.0. […] DIS measurements of DyCG4 and DyCG5 without Cu^+ show slopes of 7 ppm/(mol/kg H2O) (q=0.2) and 12 ppm/(mol/kg H2O) (q=0.3), respectively. Cu^+ binding increases the DIS slopes for DyCG4 and DyCG5 to […] ([…]) and 41 ppm/(mol/kg H2O) (q=1.0), respectively.

[9] = see reference 90, cited from earlier work

SMILES: [Cu+2] [Cu^2+]
r1 value [1]: 1.0 mM⁻¹ s⁻¹

r1 (1 equiv Cu) [2]: 6.6^b mM^−1s^−1
Cu^2+/+ E1/2 [3]: 0.40 V vs. SHE
r1 (no Cu) [4]: 1.7 mM⁻¹ s⁻¹
Kd [6]: 14 pM
τs0 (electronic relaxation time at zero field) [7]: 99 ps
r1p 20 MHz 25° C. ([7]; 0.5 mM, 20 mM HEPES pH 7): 2.1 mM⁻¹ s⁻¹
a (distance of closest approach of outer-sphere water protons) ([7]; best-fit value): 4.2 ± 0.15 Å
Δ^2 (average quadratic transient zero field splitting) ([7]; best-fit value): 3.4 ± 1.4 10^19 s^−2
τv (electronic correlation time) ([7]; best-fit value): 25 ± 7.7 ps
q ([7]; fixed in the fitting procedure): 0^c
τR (rotational correlation time) ([7]; not experimentally determined, assumed equal to corresponding q ≠ 0 complex (CG5: average of the other complexes)): 130^d ps
SMILES: CCSCCN(Cc1ccccc1)Cc1cccc(CN2CCN(CC(=O)[O-])CCN(CC(=O)[O-])CCN(CC(=O)[O-])CC2)n1.[Gd+3] [CG4]
redox specificity of relaxivity response (Cu^+ vs Cu^2+) [5]: give turn-on relaxivity increases with Cu^+ but do not respond to Cu^2+

−Δ ppm/[Dy] (DIS slope) ([8]; 20 mM HEPES, pH 7): 324 ppm/(mol/kg H2O)
−Δ ppm/[Dy] (DIS slope) ([8]; 10% CH3CN in 20 mM HEPES pH 7): 362 ppm/(mol/kg H2O)
shift per bound water molecule ([8]; 10% acetonitrile in 20 mM pH 7 HEPES buffer): 40 ppm/(mol/kg H2O)
shift per bound water molecule ([8]; pH 7 HEPES buffer): 36 ppm/(mol/kg H2O)
SMILES: [Cl][Dy]([Cl])[Cl] [DyCl3, reference compound]
q of calibration standard ([9]; 20 mM HEPES, pH 7): 9^a
q of calibration standard ([9]; 10% CH3CN in 20 mM HEPES pH 7): 9^a

Source: patent publication US20110294992A1, “METAL RESPONSIVE MRI-AGENTS” (The Regents of the University of California, priority 2010, published 2011)
